“Also recorded” adds a separate entry of the source.
Legend:
[1] = target: KRAS effector binding (Homo sapiens, UniProt P01116); assay: Effector (Raf) binding to KRAS; assay type: biochemical
[2] = test system: cancer cells; assay: Proliferation of cancer cells; assay type: cell-based
[3] = target: GTP-/GDP-bound HRAS (Homo sapiens, UniProt P01112); assay: Binding of lead compound to GTP-/GDP-bound HRAS
[4] = target: GTP-KRAS (Homo sapiens, UniProt P01116); assay: Binding of lead compound to GTP-KRAS; conditions: active GTP-bound KRAS
Sequence of GTP-KRAS (P01116 1-188 isoform P01116-2): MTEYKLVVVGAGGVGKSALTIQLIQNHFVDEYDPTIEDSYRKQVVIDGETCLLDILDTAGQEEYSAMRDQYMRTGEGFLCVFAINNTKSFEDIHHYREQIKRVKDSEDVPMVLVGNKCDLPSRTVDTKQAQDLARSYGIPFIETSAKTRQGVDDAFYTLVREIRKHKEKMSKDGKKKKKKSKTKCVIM

[5] = test system: KRAS-mediated MAPK signaling; assay: KRAS-mediated MAPK signaling; assay type: cell-based
[6] = target: KRAS (Homo sapiens, UniProt P01116, G12D); assay: Microscale thermophoresis (MST) binding affinity to KRAS (Table 1); conditions: 100 nM labeled KRAS, read-out: kD (dissociation constant)
Sequence of KRAS (P01116 whole entry G12D): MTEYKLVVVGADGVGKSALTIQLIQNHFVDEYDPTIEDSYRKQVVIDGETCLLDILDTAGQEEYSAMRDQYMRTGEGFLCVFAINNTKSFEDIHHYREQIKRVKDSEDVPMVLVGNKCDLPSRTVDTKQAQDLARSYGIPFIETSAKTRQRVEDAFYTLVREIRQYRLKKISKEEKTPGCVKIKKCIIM
Method: Measurement of compound binding affinity to KKRAS using microscale thermophoresis (MST). MST is based on the movement of molecules in response to temperature gradient. […] KRAS was buffer-exchanged in the labeling buffer (40 mM HEPES, pH 7.5, 5 mM MgCl2, and 500 mM NaCl) using a spin column (provided in the kit) The concentration of the eluted protein was adjusted (10 to 20 μM) and 2-3 fold concentration of the dye (in labeling buffer) was added (200 μL final volume), The solution was incubated for 30 minutes at room temperature in the dark. Labeled KRAS was purified using the column provided in the kit or MST measurements, 16 point serial dilutions of ligands were made in MST Assay Buffer (40 mM HEPES, pH 7.5, 5 mM MgCl2, 100 mM NaCl+0.05% Tween-20+2-4% DMSO) and added to 100 nM KRAS. The solutions were loaded in capillaries and measurements were done using 20% LED power and 40% MST power. The data were fit in Igor Pro using Hill equation or the function in the instrument software.
Microscale thermophoresis (MST) assays were used to measure the affinity of lead compound analogs for KRAS. In a typical experiment, 100 nM KRAS labeled with a dye amine-reactive red NT-647 from NanoTemper) was mixed with different concentrations of ligand and incubated in a binding buffer (40 mM HEPES, pH 7.5, 5 mM MgCl2, 150 mM NaCl, 0.05% polysorbate 20, and 2% DMSO) at room temperature for 10 min before being loaded into a capillary. Thermophoresis is carried out and dissociation constant calculated by monitoring changes in fluorescence intensity. A monolith NT.115 Reader from NanoTemper can be used for MST experiments, with 40% MST and 20% LED power.
Dissociation constants (IQ)) calculated from the thermophoresis results of selected compounds according to the present disclosure are presented in Table 1 below.
Note: For FIGS. 1A-H 1 (as well as one of the curves in FIGS. 2A-I), dissociation constant (Kd) was determined using either Microscale Thermophoresis (MST) or Intrinsic Fluorescence (IF) assay. MST assay uses fluorescence to monitor movement of molecules in response to temperature gradient created by infrared laser.

[7] = target: GDP-KRAS (Homo sapiens, UniProt P01116); assay: Binding of lead compound to GDP-KRAS (inactive KRAS); conditions: GDP-bound
Sequence of GDP-KRAS (P01116 1-188 isoform P01116-2): as the sequence (P01116 1-188 isoform P01116-2) above

[8] = target: GTP-/GDP-bound NRAS (Homo sapiens, UniProt P01111); assay: Binding of lead compound to GTP-/GDP-bound NRAS
Sequence of GTP-/GDP-bound NRAS (P01111 whole entry): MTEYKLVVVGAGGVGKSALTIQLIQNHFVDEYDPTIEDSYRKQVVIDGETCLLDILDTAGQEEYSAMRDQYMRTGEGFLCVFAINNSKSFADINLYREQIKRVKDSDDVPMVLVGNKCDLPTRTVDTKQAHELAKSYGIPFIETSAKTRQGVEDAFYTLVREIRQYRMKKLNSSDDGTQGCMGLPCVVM

Sequence of KRAS effector binding (P01116 1-188 isoform P01116-2): as the sequence (P01116 1-188 isoform P01116-2) above
Sequence of GTP-/GDP-bound HRAS (P01112 whole entry): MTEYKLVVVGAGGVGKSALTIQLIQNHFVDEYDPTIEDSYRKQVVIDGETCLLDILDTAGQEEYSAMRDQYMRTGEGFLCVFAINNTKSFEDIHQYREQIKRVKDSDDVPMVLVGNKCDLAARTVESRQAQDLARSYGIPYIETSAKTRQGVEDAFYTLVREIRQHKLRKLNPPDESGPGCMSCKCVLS

## Cc1nn2c(N3CCN(CCO)CC3)cc(-c3ccccc3)nc2c1-c1ccccc1 [Compound C1]
[1]
  Effect on effector binding: significantly reduces; also recorded: disrupt
[2]
  Effect on proliferation of cancer cells: inhibit
[3]
  Affinity for GTP-/GDP-bound HRAS: much weaker affinity; also recorded: does not bind
[4]
  Affinity for GTP-KRAS: sub micromolar affinity; also recorded: high affinity
[5]
  Effect on KRAS-mediated MAPK signaling / signal transduction through KRAS: inhibits; also recorded: reduce
[6]
  Kd: 870 ± 180 nM
[7]
  Affinity for GDP-KRAS (inactive KRAS): much weaker affinity; also recorded: does not bind
[8]
  Affinity for GTP-/GDP-bound NRAS: much weaker affinity; also recorded: does not bind

Source: patent publication US20230124492A1, “COMPOSITIONS AND METHODS FOR SUBSTITUTED 7-(PIPERAZIN-1-YL)PYRAZOLO[1,5-A]PYRIMIDINE ANALOGS AS INHIBITORS OF KRAS” (The Board of Regents of the University of Texas System, priority 2019, published 2023)
